Experimental findings from patent EP0211354A2, “Nucleosides and their use as antineoplastic agents” (MERRELL DOW PHARMACEUTICALS INC., priority 1985, dated 1987) are described below.

Marks after values point to notes of the source that are not given here.

The test system of one assay is L1210 mouse leukemia. Nature of the assay: Antitumor activity against L1210 mouse leukemia (survival time). It counts as in vivo. The settings on record: for CURES: cured = surviving more than 30 days. The protocol:
1 × 10⁵ L1210 leukemia cells per animal were injected i.p. on day 0. Treatment with the drug was started on day 1. The compound was dissolved in sterile water and administered i.p. at the doses indicated from day 1 to day 9 once daily. Therapeutic effect of the compound was determined by determining the survival time of the treated group in comparison with control group as follows: [formula] *Animals surviving for more than 30 days are considered cured.

The subject of the next assay is Hela Cells. Nature of the assay: Growth of Hela cells in culture (cell count after 72 hours). It counts as cell-based. The protocol: Hela cells (1 × 10⁵/35 mm dish) were plated and incubated at 37°C in a CO₂ (5%) incubator. Media containing different dilutions of MDL 27,069 were added after overnight incubation. At the end of 72 hours, the cells were collected by trypsinization and counted using a coulter counter. *All cells were killed.

Where [1] appears, read: 0,01 mg/kg i.p. once daily day 1 to day 9.
[2] abbreviates: 0.25 mg/kg i.p. once daily day 1 to day 9.
The mark [3] stands for this setting: 0.5 mg/kg i.p. once daily day 1 to day 9.
Setting [4] is: 1.0 mg/kg i.p. once daily day 1 to day 9.

Take `Nc1ccn([C@@H]2O[C@H](CO)[C@@H](O)C2(F)F)c(=O)n1` [MDL 27,069, 2'-desoxy-2',2'-difluorocytidine]: the “MEAN SURVIVAL TIME” value with L1210 mouse leukemia (setting [1]) stood at 13.25 days; with L1210 mouse leukemia (setting [2]) it was 13.40 days; with L1210 mouse leukemia (setting [4]) it was 20.0 days. For the same compound, the “o/o T/C” value with L1210 mouse leukemia (setting [1]) was 189 o/o; with L1210 mouse leukemia (setting [2]), 191 o/o; in the assay on L1210 mouse leukemia (setting [3]), 249 o/o; in the assay on L1210 mouse leukemia (setting [4]), 286 o/o. The CURES with L1210 mouse leukemia (setting [1]) is 0/5; in the assay on L1210 mouse leukemia (setting [2]), 0/5; with L1210 mouse leukemia (setting [3]), 0/5; with L1210 mouse leukemia (setting [4]), 2/5*. The “Cell Number” value with Hela Cells (0.00062 μg/ml) was 2.0 X10^5; in the assay on Hela Cells (0.00125 μg/ml), 1.17 X10^5; in the assay on Hela Cells (0.0025 μg/ml), 0.51 X10^5; with Hela Cells (0.005 μg/ml), 0.36 X10^5; with Hela Cells (0.01 μg/ml, *All cells were killed), 0* X10^5. Testing at 0.00062 µg/mL with Hela Cells (Homo sapiens, 0.00062 μg/ml) gave an inhibition of 48%. Also, the inhibition – broadly, how much of the control response was suppressed – at 0.00125 µg/mL in the assay on Hela Cells (Homo sapiens, 0.00125 μg/ml) was determined as 70%. In addition, in the assay on Hela Cells (Homo sapiens, 0.0025 μg/ml), the inhibition at 0.0025 µg/mL turned out to be 87%. The compound also yielded an inhibition at 0.005 µg/mL in the assay with Hela Cells (Homo sapiens, 0.005 μg/ml) of 91%. In the assay on Hela Cells (Homo sapiens, 0.01 μg/ml), this compound showed an inhibition at 0.01 µg/mL of 100%.
